Like-named read-outs stand apart in the source and are kept apart here.

Data set [1] has as its system isolated rat phrenic nerve-diaphragm preparation. The data set can be described thus: Isolated rat phrenic nerve-diaphragm preparation. The source says:
This is not reversed by neostigmine, i.e. is not curare-like.

Data set [2] is described as follows: Craig Distribution studies (Kp value). Type of data set: physicochemical. Particulars: obtained previously from Craig Distribution studies. Here is the method:
Crude syrup (190 g.) from the cold petrol extraction was dissolved in upper phase solvent (150 mls.). A steady state distribution program was used, based on a Kp value for cunaniol acetate of 0.54 obtained previously from Craig Distribution studies. The mixture was then loaded into the SSDM dosage pump.

The conditions of data set [3]: for stability to air and light: exposure to light and air / oxygen.
A further data set has as its system mice. The data set can be described thus: Convulsant action in mice, intraperitoneal or oral. Type of data set: in vivo, mouse. To be noted: for convulsant type in mice: intraperitoneally or orally; for similarity of convulsant actions to cunaniol: mice.
Data set [4] in a line: Potency of cis-cunaniol relative to the trans form. To be noted: cis form versus trans form; only about 1/60th.
The next data set relates to central nervous system. The data set can be described thus: Central nervous system stimulant / convulsant activity compared with picrotoxin; antagonism by anticonvulsants. Type of data set: in vivo. To be noted: for antagonism of cunaniol convulsant action: prior exposure to anticonvulsant. The source says:
(§1) Cunaniol is about ten times as active and ten times as rapid as the classic central nervous system stimulant picrotoxin. Convulsant action can be antagonised by prior exposure to anticonvulsants such as phenobarbitone or troxidone.

The next data set deals with isolated rabbit heart. The data set can be described thus: Isolated rabbit heart perfusion.
The nature of data set [5]: Solubility / lipophilicity. Type of data set: physicochemical.
Data set [6] concerns pentobarbitone sodium induced sleep. Nature of the data set: Pentobarbitone sodium induced sleep in rats (sleeping time), analeptic action. Type of data set: in vivo, rat. To be noted: for ED50: after intraperitoneal 40 mg/kg pentobarbitone sodium, read-out: dose reducing "sleeping time" by 50%. As to the method:
The effects of cunaniol on pentobarbitone sodium induced sleep in rats were compared with those of the analeptic bemegride. 5 mg/kg of cunaniol administered by intraperitoneal injection antagonises pentobarbitone while 7.4 mg/kg reduces "sleeping time" by 50% after intraperitoneal administration of a concentration of 40 mg/kg pentobarbitone sodium.

For a further data set, the system named is frogs. Nature of the data set: Administration to frogs by injection or by topical application: convulsions and death. Type of data set: in vivo, frog.
Text: as §1

Data set [7] deals with frog spinal cord preparation. Nature of the data set: Frog spinal cord preparation.
Text: as §1

Data set [8] is described as follows: Convulsant action and lethality in rats, intraperitoneal injection. Type of data set: in vivo, rat. To be noted: rat, in vivo, ip, read-out: non-convulsant dose. Here is the method: (§2) Rats are also sensitive to the convulsant actions of cunaniol, a convulsant dose being 5 mg/kg. A dosage of 2.24 mg/kg is a non-convulsant dose while 10 mg/kg causes death (intraperitoneal injection).

A further data set concerns Rats. The data set is described as above. Type of data set: in vivo, rat. Here is the method: as §2
In the next data set the test system is GABAergic system. Nature of the data set: GABA (gamma-amino-butyric acid) antagonism.
The next data set relates to cardiovascular system. The data set can be described thus: Action on the cardiovascular system. To be noted: in vivo.
A further data set deals with rat heart. Nature of the data set: Rat heart contractability and heart block.
Data set [9] has as its system intact anaesthetised rats. The data set can be described thus: Pressor response in intact anaesthetised rats. The data set is classed as in vivo, rat. Particulars: intravenous injection. Here is the method: (§3) In intact anaesthetised rats, a sustained pressor response is produced by cunaniol administered by intravenous injection in doses of 0.5 mg or greater. In pithed rats the response to cunaniol was abolished, indicating a central action of the polyacetylene.

A further data set relates to pithed rats. Nature of the data set: Pressor response in pithed rats. Particulars: indicating a central action. Type of data set: in vivo, rat. As to the method: as §3
Data set [10] deals with frog and rat isolated striated muscle preparations. The data set can be described thus: Frog and rat isolated striated muscle preparations, nerve stimulation. The source says:
Experiments have been carried out on frog and rat isolated striated muscle preparations.

A further data set concerns guppies. The data set can be described thus: Toxicity test on guppies. Type of data set: in vivo, guppy. The source says:
Cunaniol or its derivatives may also be used as an effective toxin. When tested on guppies at approximately 10^-6 M the poison gives rise to restless movement after two minutes, wild swimming, convulsion and coma with the body bent laterally after ten minutes.

The next data set relates to viviparous fish. The data set can be described thus: Release of fry from viviparous fish. Particulars: due to effects on neuromuscular function. Type of data set: in vivo.

Consider `CN(C)C(=O)Oc1cccc([N+](C)(C)C)c1` [neostigmine, reference compound], for which the “reversal of neuromuscular block by neostigmine” value in data set [1] (block by cunaniol, i.e. not curare-like) is reported as “not reversed”.

For `CC#CC#CC#CC=CC1OCCCC1OC(C)=O` (stereo not shown) [cunaniol acetate], the Kp value in data set [2] turned out to be 0.54. Moreover, the hydrolysis entry in [3] (with sodium bicarbonate) is on record as “easily hydrolysed”.

`O=C1C[C@@H]2OCC=C3CN4CC[C@]56c7ccccc7N1[C@H]5[C@H]2[C@H]3C[C@H]46` [strychnine]: in the data set with mice, the “convulsant type in mice” value is recorded as “tonic convulsions” and the “similarity of convulsant actions to cunaniol” value (“similarity” below) is reported as “differed”.

In the case of `CC#CC#CC#C/C=C\C1OCCCC1O` (stereo not drawn) [cis-cunaniol], in data set [4], the “potency relative to trans form” value was “about 1/60”.

In the case of `CN1C(=O)OC(C)(C)C1=O` [troxidone, reference compound], in the data set on central nervous system, the “antagonism of cunaniol convulsant action” value was “antagonised”.

Turning to `CC#CC#CC#C/C=C/C1OCCCC1OC1C=C[C@H](OC(C)=O)[C@@H](COC(C)=O)O1` (stereo partly shown) [glycoside], in data set [3] (hydrolysis of the glycoside link), the “liberation of cunaniol on hydrolysis” value is on record as “readily liberated on hydrolysis”.

For the compound picrotoxin, the “similarity” value with mice was “less closely”.

Regarding `C1CCc2nnnn2CC1` [leptazol], the “similarity” value with mice was “mimicked closely”.

Turning to `C=C(C)[C@H]1Cc2c(ccc3c2O[C@@H]2COc4cc(OC)c(OC)cc4[C@@H]2C3=O)O1` [rotenone], the toxicity to mice entry in the data set on mice (metabolic toxin, comparison) is “highly toxic to mice”. In addition, the “similarity” value with mice is recorded as “qualitatively different from the convulsants”. Moreover, in the data set on isolated rabbit heart (similar experiment with rotenone), the “reversibility in isolated rabbit heart” value was “did not exhibit the reversibility”.

Consider `CC#CC#CC#C/C=C/C1OCCCC1O` (stereo not shown), for which, in [5] (water), the solubility in water entry was “low solubility in water”.

As for `CCC1(C)CC(=O)NC(=O)C1` [bemegride, reference compound], the ED50 in [6] (Rattus norvegicus, ip, rats) was 45.7 mg/kg.

On to `CC#CC#CC#CC=CC1OCCCC1O` (stereo not shown) [cunaniol], for which the “rapidity relative to picrotoxin” value in the data set on central nervous system (ten times as rapid as picrotoxin) was “about ten”. In addition, in the data set on frogs (by injection or by topical application), the effect in frogs result is “clonic convulsions and death”. In the data set with frogs (frogs, intraperitoneal injection), this compound gave an LD50 of 12.8 mg/kg. The “effects on frog spinal cord preparation” value in data set [7] is listed as “resemble those of nicotine”. Further, in the data set on mice (both routes of administration, compared with leptazol, picrotoxin), the “potency among the clonic convulsants” value is given as “most potent of the clonic convulsants”. Further, the “speed of onset of effects” value with mice (compared with the other compounds) is “usually occurred more rapidly than with the other compounds”. Also, the “convulsant type in mice” value with mice was “clonic convulsant”. Also, the NOAEL in data set [8] amounted to 2.24 mg/kg. In the data set with Rats, this compound showed a convulsant dose of 5 mg/kg and a dose causing death of 10 mg/kg. The minimal effective dose in data set [6] (Rattus norvegicus, ip, rats, intraperitoneal injection, read-out: dose antagonising pentobarbitone) is 5 mg/kg. The ED50 in data set [6] (Rattus norvegicus, ip, rats) is 7.4 mg/kg. Besides, the selectivity as analeptic result in [6] (compared with bemegride and leptazol) is given as “more selective anti-phenobarbitone action”. The “analeptic potency compared with bemegride” value in data set [6] (rats, 50% reduction of "sleeping time") is on record as “more potent than bemegride”. Further, in the data set on GABAergic system, the GABA antagonist activity entry was “GABA (gamma-amino-butyric acid) antagonist”. In the data set with cardiovascular system, the “effect on the cardiovascular system” value was “transient depressant effect on the heart and a sustained pressor response”. In the data set with isolated rabbit heart (perfusion, 100 μg/ml, preliminary experiments), the “effect on isolated rabbit heart” value is recorded as “negative inotropic effect culminating in complete but reversible cardiac arrest in diastole”. Further, in the data set with rat heart (larger doses), the “effect on rat heart, larger doses” value is “complete heart block”. In the data set with rat heart (on washing out, no apparent impairment of function), the “reversibility of heart block” value is on record as “rapidly reversed on washing out”. Moreover, in the data set on rat heart (small doses), the “effect on rat heart, small doses” value is “reduce contractability of the rat heart”. Besides, the “dose producing a sustained pressor response” value in [9] is no less than 0.5 mg. Besides, the “pressor response in pithed rats” value in the data set with pithed rats is reported as “abolished”. Moreover, the “response to nerve stimulation” value in data set [10] was “increased response to nerve stimulation”. The “neuromuscular transmission at higher concentrations” value in data set [10] (higher concentrations) is recorded as “failure in neuromuscular transmission”. For the same compound, the minimal effective concentration in data set [1] (Rattus norvegicus, direct action on the muscle, dose dependent, concentrations as low as, read-out: lowest concentration giving marked potentiation) was determined as 12.5 µg/mL. Further, the “concentration giving complete neuromuscular block” value in data set [1] (higher concentrations) is 100 µg/mL. Besides, the “reversal of block by washing” value in [1] (washing) is reported as “readily reversed by washing”. The “time for removal of potentiation by washing” value in [1] (washing, more slowly removed than block) stood at 60 min. Further, in the data set with guppies (almost immediately after treatment), the “edibility of treated fish” value is reported as “edible almost immediately”. Further, the “subsequent symptoms after recovery” value with guppies (guppies removed into fresh water) is recorded as “no subsequent symptoms”. Moreover, in the data set on guppies (guppies removed into fresh water after ten minutes at approximately 10^-6 M), the “time to complete recovery” value is recorded as “approximately twenty”. Further, in the data set with guppies (guppies, approximately 10^-6 M), the “time to restless movement” value was “two”; the “time to wild swimming, convulsion and coma with the body bent laterally” value is given as “ten”. Besides, the “release of fry from viviparous fish” value in the data set on viviparous fish was “highly effective”. Further, the lipophilicity result in data set [5] (due to the polyacetylene chain) is “lipophilic”. In addition, the “stability to air and light” value in [3] is “readily decomposed to a brown material”. Also, the “stability to air and light” value in [3] (listed as trans-cunaniol) is “unstable to oxygen and light”. The storage stability result in data set [3] (solid under n-hexane, in the dark, in a refrigerator) is on record as “could be kept for years”.

With `CCC1(c2ccccc2)C(=O)NC(=O)NC1=O` [phenobarbitone, reference compound], in the data set on central nervous system, the “antagonism of cunaniol convulsant action” value is on record as “antagonised”. For the same compound, the “antagonism of responses of guppies to cunaniol” value with guppies (in vivo) is “readily antagonises all responses”.

In general, LD50 refers to the dose at which mortality reaches 50%. A low value points to greater toxicity.

For the origin of these results see US5786385A, “Polyacetylenes” (priority 1993, dated 1998).
